Measured values from US20110212053A1, “PHOSPHATIDYLINOSITOL 3 KINASE INHIBITORS” (priority 2008, published 2011).

Target: PDGFRα(D842V) (Homo sapiens, UniProt P16234, D842V)
Assay: Radiometric HotSpot kinase assay, PDGFRα(D842V)
Assay type: biochemical
Procedure: Kinase Profiling: The inhibitory activity of the PI3K inhibitor compounds of the invention against 250 protein kinases was determined via the radiometric HotSpot Kinase Profiling (Reaction Biology Corporation, Malvern, Pa.). Compounds were profiled at a final concentration of 1 μM compound against recombinant protein kinases in the presence of 10 μM ATP and data were expressed as percent inhibition. IC50 and/or percent inhibition at 1 μM compound values were determined for select compounds against a subset of kinases (MELK, MNK1, MNK2, mTOR, PIM-1. TRKC, and PDGFRα(D842V)).
Compounds of the invention were assayed against the select kinases using the KinaseGLO assay (MELK) or the radiometric assay (PIM, TRKC, PDGFRα(D842V), MNK1 and mTOR). IC50 values were determined using 8-10 point half-log dose dilutions and calculated via nonlinear regression analysis using Graphpad Prism data analysis software.

PDGFRα(D842V), sequence (P16234 24-1089 D842V): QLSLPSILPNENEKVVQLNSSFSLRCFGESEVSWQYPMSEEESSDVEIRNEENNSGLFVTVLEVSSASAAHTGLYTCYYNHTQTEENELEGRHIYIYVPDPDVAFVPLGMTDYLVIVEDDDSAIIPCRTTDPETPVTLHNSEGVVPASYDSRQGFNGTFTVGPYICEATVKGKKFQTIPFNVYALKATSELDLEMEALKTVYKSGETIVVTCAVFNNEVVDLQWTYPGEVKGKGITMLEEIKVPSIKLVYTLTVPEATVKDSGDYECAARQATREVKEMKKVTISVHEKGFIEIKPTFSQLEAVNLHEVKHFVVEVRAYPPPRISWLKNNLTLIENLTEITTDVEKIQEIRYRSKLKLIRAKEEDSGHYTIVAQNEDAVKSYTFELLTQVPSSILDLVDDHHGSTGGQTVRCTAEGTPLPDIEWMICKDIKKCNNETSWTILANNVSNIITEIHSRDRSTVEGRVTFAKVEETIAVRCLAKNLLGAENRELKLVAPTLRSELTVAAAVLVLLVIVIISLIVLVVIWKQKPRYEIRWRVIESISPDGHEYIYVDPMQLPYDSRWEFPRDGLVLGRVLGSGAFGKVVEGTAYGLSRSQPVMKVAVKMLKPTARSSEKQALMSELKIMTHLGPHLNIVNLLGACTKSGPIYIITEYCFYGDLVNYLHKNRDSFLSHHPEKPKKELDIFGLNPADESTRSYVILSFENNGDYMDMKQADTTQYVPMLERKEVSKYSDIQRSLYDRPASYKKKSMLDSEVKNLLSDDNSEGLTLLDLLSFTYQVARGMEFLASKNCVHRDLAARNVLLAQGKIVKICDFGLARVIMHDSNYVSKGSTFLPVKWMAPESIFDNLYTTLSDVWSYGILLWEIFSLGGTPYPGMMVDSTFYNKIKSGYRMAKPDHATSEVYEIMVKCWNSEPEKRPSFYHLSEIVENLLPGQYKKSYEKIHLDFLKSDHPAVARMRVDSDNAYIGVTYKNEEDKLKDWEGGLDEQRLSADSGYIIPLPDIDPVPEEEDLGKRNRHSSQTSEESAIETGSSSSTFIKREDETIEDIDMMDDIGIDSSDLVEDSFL

IC50: > 100 nM
SMILES: CC(C)(C#N)c1ccc(-c2n[nH]c3cnc4ccc(-c5ccc6ncccc6c5)cc4c23)cc1 [Compound 1110, 2-methyl-2-(4-(8-(quinolin-6-yl)-3H-pyrazolo[3,4-c]quinolin-1-yl)phenyl)propanenitrile]
